Where two headings read alike, the source gives them in different places.
How the values were obtained:
asialoagalactofetuin = target: T1, asialoagalactofetuin (Bos taurus, UniProt P12763); details: ACS2P1-biotin 10 μg/ml; glycoprotein 3 μg/ml; n=3
T1 sequence (P12763 19-359): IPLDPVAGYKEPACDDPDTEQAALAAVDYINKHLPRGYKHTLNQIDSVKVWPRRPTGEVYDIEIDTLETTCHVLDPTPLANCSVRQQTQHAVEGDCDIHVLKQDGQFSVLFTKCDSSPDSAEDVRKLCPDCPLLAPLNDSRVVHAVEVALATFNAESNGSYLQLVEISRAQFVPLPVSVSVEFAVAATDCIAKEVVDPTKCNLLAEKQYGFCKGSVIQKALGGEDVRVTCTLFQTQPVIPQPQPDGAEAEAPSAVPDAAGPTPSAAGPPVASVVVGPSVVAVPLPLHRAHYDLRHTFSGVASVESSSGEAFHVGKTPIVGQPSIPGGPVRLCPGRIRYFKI
Description: (§1) The reaction was terminated by removing the mixture from the IODO-GEN tube and the iodinated peptide was purified on a Sephadex G-25 column (1×15 cm equilibrated with PBS).

asialofetuin = target: T2, asialofetuin (Bos taurus, UniProt P12763); details: ACS2P1-biotin 10 μg/ml; glycoprotein 3 μg/ml; n=3
T2 sequence (P12763 19-359): T1 sequence (P12763 19-359)
Description: as §1

fetuin = fetuin (Bos taurus, UniProt P12763)
Description: as §1

[1] = target: αNeuAc(2-3)βGal(1-3)βGlcNAc-BSA (1-4) αFuc (Bos taurus, UniProt P02769); details: SLe^a(C19.9); conjugate 50 μg/mL; 0.1 μg ACS2P1-biotin, 1 hour
Description: (§2) Binding assays were carried out essentially as described above using microtiter wells that were coated with 50 μl of BSA glycoconjugate (50 μg/ml) in 50 mM sodium phosphate buffer (pH 6.8) containing 5 mM MgCl2 nd 15 mM NaN3 for 16 hours at 4° C. The solution was removed by aspiration and replaced with 100 μl of 1% BSA in PBS containing 0.05% Tween 20 (PBST) and incubated at room temperature for an additional 2-3 hours. […] After incubating for 1 hour, the binding reaction was stopped by aspirating the solutions and the plate was washed with PBST (4×300 μl). Avidin-peroxidase (100 μl of a 1/3000 dilution of a 1 mg/ml solution in PBST) was added and incubated for an additional 1 hour. After washing the wells as described above, the substrate solution (1 mM ABTS in 5 mM citrate buffer, pH 4.2, containing 0.1% hydrogen peroxide, v/v) was added and the plates were incubated for 30 minutes. Binding assays for each BSA conjugate were done in triplicate and background binding was measured in wells coated with BSA only.

[2] = target: αNeuAc(2-3)βGal(1-3)βGlcNAc-BSA (Bos taurus, UniProt P02769); details: SLe^c; conjugate 50 μg/mL; 0.1 μg ACS2P1-biotin, 1 hour
Description: as §2

[3] = target: αNeuAc(2-3)βGal(1-4)βGlcNAc-BSA (1-3) αFuc (Bos taurus, UniProt P02769); details: SLe^x; conjugate 50 μg/mL; 0.1 μg ACS2P1-biotin, 1 hour
Description: as §2

[4] = target: αNeuAc(2-3)βGal(1-4)βGlcNAc-BSA (Bos taurus, UniProt P02769); details: conjugate 50 μg/mL, 0.1 μg ACS2P1-biotin, 1 hour
Description: as §2

[5] = target: PT immobilized in microtiter wells (Bordetella pertussis, UniProt P04978+P04979)
Sequence of PT immobilized in microtiter wells (P04978 whole entry, looked up): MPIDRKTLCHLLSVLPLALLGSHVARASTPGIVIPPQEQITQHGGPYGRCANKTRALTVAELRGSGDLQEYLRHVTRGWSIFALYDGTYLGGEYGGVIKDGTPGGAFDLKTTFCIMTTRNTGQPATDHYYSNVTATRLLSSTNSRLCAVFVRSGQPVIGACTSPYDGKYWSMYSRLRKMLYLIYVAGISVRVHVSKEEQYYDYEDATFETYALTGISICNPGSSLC
Sequence of PT immobilized in microtiter wells (P04979 whole entry, looked up): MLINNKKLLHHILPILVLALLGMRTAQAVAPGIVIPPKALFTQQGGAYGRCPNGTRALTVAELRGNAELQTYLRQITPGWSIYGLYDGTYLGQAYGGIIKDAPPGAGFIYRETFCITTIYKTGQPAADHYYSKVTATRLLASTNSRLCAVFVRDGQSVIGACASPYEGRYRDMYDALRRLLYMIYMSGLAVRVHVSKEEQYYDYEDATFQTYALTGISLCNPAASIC

Sequence of αNeuAc(2-3)βGal(1-4)βGlcNAc-BSA (P02769 25-607): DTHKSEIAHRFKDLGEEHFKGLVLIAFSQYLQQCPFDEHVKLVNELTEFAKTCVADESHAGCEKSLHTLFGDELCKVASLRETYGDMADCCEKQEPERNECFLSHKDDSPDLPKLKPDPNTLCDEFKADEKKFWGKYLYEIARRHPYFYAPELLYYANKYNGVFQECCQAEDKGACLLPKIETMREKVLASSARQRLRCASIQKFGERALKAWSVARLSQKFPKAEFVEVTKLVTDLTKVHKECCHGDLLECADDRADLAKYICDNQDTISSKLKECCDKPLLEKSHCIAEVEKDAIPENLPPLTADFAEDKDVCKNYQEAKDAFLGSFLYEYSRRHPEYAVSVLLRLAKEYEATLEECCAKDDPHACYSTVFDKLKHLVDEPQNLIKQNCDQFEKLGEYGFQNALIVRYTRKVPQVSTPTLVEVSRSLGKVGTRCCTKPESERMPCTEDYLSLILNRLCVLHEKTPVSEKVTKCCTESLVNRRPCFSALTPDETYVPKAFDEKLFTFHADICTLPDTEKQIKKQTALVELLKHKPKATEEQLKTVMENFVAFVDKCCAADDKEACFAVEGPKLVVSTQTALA
Sequence of αNeuAc(2-3)βGal(1-3)βGlcNAc-BSA (1-4) αFuc (P02769 25-607): as above
Sequence of αNeuAc(2-3)βGal(1-4)βGlcNAc-BSA (1-3) αFuc (P02769 25-607): as above
Sequence of αNeuAc(2-3)βGal(1-3)βGlcNAc-BSA (P02769 25-607): as above

BIOTIN-PQEQITQHGSPYGRC-CO—NH2 [ACS2P1-b]
binding to asialoagalactofetuin relative to fetuin (asialoagalactofetuin): 93±18% | binding to asialofetuin relative to fetuin (asialofetuin): 45±9% | direct binding of biotinylated peptide to fetuin, in words (fetuin): concentration-dependent binding | reduction of binding of the peptide to fetuin by extensive iodination (IODO-GEN) (fetuin; iodinated vs underivatized peptide, 10 μg/ml, n=3): 58±3% | % Binding Relative to Fetuin of ACS2P1-b (n = 3) [1]: 84 ± 14% | % Binding Relative to Fetuin of ACS2P1-b (n = 3) [2]: 70 ± 4% | % Binding Relative to Fetuin of ACS2P1-b (n = 3) [3]: 84 ± 3% | % Binding Relative to Fetuin of ACS2P1-b (n = 3) ([4]; SLacNAc (table row r10)): 117 ± 12% | % Binding Relative to Fetuin of ACS2P1-b (n = 3) ([4]; SLacNAc (table row r12)): 94 ± 2% | direct binding of biotinylated peptide to PT immobilized in microtiter wells, in words [5]: concentration-dependent binding
